{
  "source": "PubChem BioAssay (NCI)",
  "experiment_in_all_cases": "inhibition of tumour cell growth, NCI panel, 48 h",
  "key": {"786-0 renal": {"tested_on": "786-0 renal"}, "COLO 205 colon": {"tested_on": "COLO 205 colon"}, "DU-145 prostate": {"tested_on": "DU-145 prostate"}, "KM12 colon": {"tested_on": "KM12 colon"}, "LOX IMVI melanoma": {"tested_on": "LOX IMVI melanoma"}, "M14 melanoma": {"tested_on": "M14 melanoma"}, "NCI-H23 lung": {"tested_on": "NCI-H23 lung"}, "NCI-H522 lung": {"tested_on": "NCI-H522 lung"}, "NCI/ADR-RES ovarian": {"tested_on": "NCI/ADR-RES ovarian"}, "UACC-62 melanoma": {"tested_on": "UACC-62 melanoma"}},
  "note": "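Growth conditions: 96-well plates. Treatment: test compound, 48 hours, 5 concentrations. Analysis: linear interpolation between bracketing concentrations; unreached endpoints set to highest concentration. TGI is the concentration that stops growth completely.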",
  "data": [
    {"smiles": "CN(CCN(C)Cc1ccc(Cl)c(Cl)c1)CCN1CCCC1", "values": [
      {"measurement": "TGI", "setting": "786-0 renal", "result": 64.6, "unit": "µM"},
      {"measurement": "TGI", "setting": "COLO 205 colon", "result": 41.2, "unit": "µM"},
      {"measurement": "TGI", "setting": "DU-145 prostate", "result": "> 100", "unit": "µM"},
      {"measurement": "TGI", "setting": "KM12 colon", "result": "> 100", "unit": "µM"},
      {"measurement": "TGI", "setting": "LOX IMVI melanoma", "result": "> 58.6", "unit": "µM"},
      {"measurement": "TGI", "setting": "M14 melanoma", "result": "> 54.4", "unit": "µM"},
      {"measurement": "TGI", "setting": "NCI-H23 lung", "result": "> 100", "unit": "µM"},
      {"measurement": "TGI", "setting": "NCI-H522 lung", "result": 46.9, "unit": "µM"},
      {"measurement": "TGI", "setting": "NCI/ADR-RES ovarian", "result": "> 100", "unit": "µM"},
      {"measurement": "TGI", "setting": "UACC-62 melanoma", "result": 7.47, "unit": "µM"}
    ]}
  ]
}
